Read-outs that look alike come from different tables or passages of the source.
What was measured:
[1] = molecular target: T1, AHR (Homo sapiens, UniProt P35869); assay: DRE-Luciferase Reporter Assay, HepG2, agonist; type: cell-based; conditions: HepG2 cells, agonist mode
T1 construct: endogenous in cells; host or cells: HepG2 (human), DRE-luciferase reporter stably or transiently transfected
T1 sequence (P35869 11-848): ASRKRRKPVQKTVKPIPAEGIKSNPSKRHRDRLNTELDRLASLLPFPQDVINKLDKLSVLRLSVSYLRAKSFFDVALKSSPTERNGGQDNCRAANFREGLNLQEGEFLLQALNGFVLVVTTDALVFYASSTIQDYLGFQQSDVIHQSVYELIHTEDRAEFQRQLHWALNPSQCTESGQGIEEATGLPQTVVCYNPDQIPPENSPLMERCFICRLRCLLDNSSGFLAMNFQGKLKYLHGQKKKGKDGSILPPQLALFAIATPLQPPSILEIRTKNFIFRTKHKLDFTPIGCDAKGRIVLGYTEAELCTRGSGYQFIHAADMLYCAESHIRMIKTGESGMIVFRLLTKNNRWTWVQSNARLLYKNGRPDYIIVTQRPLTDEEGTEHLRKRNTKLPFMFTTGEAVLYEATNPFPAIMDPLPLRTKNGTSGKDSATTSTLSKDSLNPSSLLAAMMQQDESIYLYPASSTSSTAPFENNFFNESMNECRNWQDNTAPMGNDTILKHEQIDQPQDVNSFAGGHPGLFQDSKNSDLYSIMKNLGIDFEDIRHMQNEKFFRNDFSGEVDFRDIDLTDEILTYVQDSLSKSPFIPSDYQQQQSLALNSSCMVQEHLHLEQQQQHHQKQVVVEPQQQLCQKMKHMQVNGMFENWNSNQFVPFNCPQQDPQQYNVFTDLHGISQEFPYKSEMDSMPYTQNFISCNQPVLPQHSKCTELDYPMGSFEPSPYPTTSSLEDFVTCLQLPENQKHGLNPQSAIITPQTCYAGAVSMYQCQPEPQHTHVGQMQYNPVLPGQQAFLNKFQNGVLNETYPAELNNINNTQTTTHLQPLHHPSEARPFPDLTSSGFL
Protocol: (§1) AHR binds to Dioxin Responsive Elements (DRE) upstream of genes that it activates. One measure of AHR activity is activation of a reporter gene, such as luciferase, downstream of one or multiple DRE elements. Luciferase activity will reflect activation and inhibition of AHR in the cells expressing this reporter.
(§2) Murine Hepa1-6 or Hepa-1c1c7 or other murine cell line with a DRE-luciferase reporter either stably or transiently transfected are plated in media in plates (96-well, 384-well or other plates) and incubated overnight at 37 C in a CO2 incubator. Likewise, human HepG2 or other human cell line with a DRE-luciferase reporter either stably or transiently transfected are plated in media in plates (96-well, 384-well or other plates) and incubated overnight at 37 C in a CO2 incubator.
(§3) The next day, an AHR agonist compound is added. Cells are incubated for 6, 16 or 24 hours or another time point and then lysed for determination of luciferase activity as a read-out of the AHR activation. Luciferase can be measured with a commercial kit such as the Promega Luciferase kit or any kit or reagents that provide the luciferin substrate for measuring luciferase activity. The level of luciferase with only activating ligand (e.g. such as TCDD, kynurenine, ITE (2-(1H-indole-3-ylcarbonyl)-4-thiazolecarboxylic methyl ester), VAF347, BNF (beta-naphthoflavone), ICZ (6-formylindolo(3,2-b) carbazole or other AHR ligands) added is the maximum signal while the luciferase with no ligand is the minimum signal. EC50s can be determined as the concentration which activates half of the maximum luciferase activity.

[2] = molecular target: T2, AHR (Mus musculus, UniProt P30561); assay: DRE-Luciferase Reporter Assay, Hepa1.6, agonist; type: cell-based, murine; conditions: Hepa1.6 cells, agonist mode
T2 construct: endogenous in cells; host or cells: Hepa1-6 / Hepa1.6 (murine hepatoma); DRE-luciferase reporter transfected in A3, no transfection in A2
Protocol: as §1, §2, §3

[3] = Table 2, read-out: DRE-Luc HepG2 - Agonist: Average EC50
[4] = Table 3, read-out: DRE-Luc HepG2 - Agonist: Average EC50
[5] = DRE-Luc Hepa1.6 - Agonist: Average EC50 (μM), Table 3
[6] = Table 3, read-out: DRE-Luc Hepa1.6 - Agonist: Average EC50

T2 sequence (P30561 10-805 limits assumed): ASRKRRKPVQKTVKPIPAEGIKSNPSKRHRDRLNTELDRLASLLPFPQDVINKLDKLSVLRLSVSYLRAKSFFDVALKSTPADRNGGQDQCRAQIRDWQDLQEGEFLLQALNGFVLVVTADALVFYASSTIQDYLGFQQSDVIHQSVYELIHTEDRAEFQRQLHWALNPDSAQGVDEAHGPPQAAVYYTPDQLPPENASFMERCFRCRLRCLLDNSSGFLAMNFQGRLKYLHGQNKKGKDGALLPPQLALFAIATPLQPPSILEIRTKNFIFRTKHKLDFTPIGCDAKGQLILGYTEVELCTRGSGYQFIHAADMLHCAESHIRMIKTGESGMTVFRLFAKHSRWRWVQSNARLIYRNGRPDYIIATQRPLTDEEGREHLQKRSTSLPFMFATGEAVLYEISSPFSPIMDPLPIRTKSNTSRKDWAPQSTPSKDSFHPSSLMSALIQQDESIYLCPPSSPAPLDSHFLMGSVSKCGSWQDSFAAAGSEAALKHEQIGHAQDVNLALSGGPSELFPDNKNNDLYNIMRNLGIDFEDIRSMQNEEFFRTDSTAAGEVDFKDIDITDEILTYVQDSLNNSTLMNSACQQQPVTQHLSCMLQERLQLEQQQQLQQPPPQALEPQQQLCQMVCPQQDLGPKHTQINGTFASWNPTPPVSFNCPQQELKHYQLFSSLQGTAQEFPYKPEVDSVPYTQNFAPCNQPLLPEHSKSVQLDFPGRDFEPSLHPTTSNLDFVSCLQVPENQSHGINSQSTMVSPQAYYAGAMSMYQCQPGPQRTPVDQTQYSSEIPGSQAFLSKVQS
T2 sequence (P11499 whole entry partner): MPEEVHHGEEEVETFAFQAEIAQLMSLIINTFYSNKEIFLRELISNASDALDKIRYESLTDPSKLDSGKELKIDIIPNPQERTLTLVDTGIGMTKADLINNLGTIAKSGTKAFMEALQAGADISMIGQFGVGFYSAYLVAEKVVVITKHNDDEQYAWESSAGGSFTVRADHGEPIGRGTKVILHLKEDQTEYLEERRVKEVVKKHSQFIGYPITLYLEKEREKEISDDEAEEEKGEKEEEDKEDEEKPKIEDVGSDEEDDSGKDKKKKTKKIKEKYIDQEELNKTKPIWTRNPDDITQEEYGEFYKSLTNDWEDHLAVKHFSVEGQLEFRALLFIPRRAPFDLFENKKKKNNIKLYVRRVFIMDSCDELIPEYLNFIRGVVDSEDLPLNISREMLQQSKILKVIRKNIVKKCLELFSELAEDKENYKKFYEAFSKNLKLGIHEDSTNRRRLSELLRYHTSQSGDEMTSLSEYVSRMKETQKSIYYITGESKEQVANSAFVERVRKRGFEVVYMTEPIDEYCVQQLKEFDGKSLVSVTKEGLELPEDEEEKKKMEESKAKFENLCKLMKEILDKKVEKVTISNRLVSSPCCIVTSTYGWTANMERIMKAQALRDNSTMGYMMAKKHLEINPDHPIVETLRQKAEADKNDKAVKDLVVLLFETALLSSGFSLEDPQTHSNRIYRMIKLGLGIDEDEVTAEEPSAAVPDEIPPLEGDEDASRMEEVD
T2 sequence (O08915 whole entry partner): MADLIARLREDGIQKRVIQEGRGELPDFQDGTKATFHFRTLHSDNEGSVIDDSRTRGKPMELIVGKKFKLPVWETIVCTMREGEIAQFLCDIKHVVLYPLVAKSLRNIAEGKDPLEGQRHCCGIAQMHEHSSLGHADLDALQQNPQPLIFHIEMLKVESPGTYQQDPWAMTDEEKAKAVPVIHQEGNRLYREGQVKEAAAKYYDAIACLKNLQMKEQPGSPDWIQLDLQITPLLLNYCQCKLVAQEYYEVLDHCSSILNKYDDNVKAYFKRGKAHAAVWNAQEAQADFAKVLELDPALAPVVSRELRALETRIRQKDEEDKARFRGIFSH

Row | Compound | EC50 [1, 3] [µM] | also measured
1 | CN(C)C(=O)c1csc(C(=O)c2c[nH]c3ccccc23)n1 [Compound I-3, 2-(1H-Indole-3-carbonyl)-N,N-dimethyl-thiazole-4-carboxamide] | 0.01 to 0.1 | –
2 | Cc1sc(C(=O)c2c[nH]c3ccccc23)nc1C(=O)O [Compound I-40] | > 1 | –
3 | COC(=O)c1csc(C(=O)c2c[nH]c3cc(OC)ccc23)n1 [Compound I-6] | 0.1 to 1 | –
4 | COC(=O)c1csc(C(=O)n2cnc3ccccc32)n1 [Compound I-27] | > 1 | –
5 | Cc1sc(C(=O)c2c[nH]c3ccccc23)nc1C(=O)NCCOCCO [Compound I-29, N-[2-(2-Hydroxyethoxy)ethyl]-2-(1H-indole-3-carbonyl)-5-methyl-thiazole-4-carboxamide] | > 1 | –
6 | COC(=O)c1nc(C(=O)c2c[nH]c3ccccc23)sc1Cl [Compound I-55] | – | EC50 [1, 4]: < 0.01 µM; EC50 [2, 5]: 0.01 to 0.1 µM
7 | CCc1csc(C(=O)c2c[nH]c3ccccc23)n1 [Compound I-57] | – | EC50 [1, 4]: < 0.01 µM; EC50 [2, 5]: < 0.01 µM
8 | COC(=O)c1nc(C(=O)c2c[nH]c3cccc(C)c23)sc1C [Compound I-15] | 0.1 to 1 | –
9 | CC(C)(C)c1csc(C(=O)c2c[nH]c3ccccc23)n1 [Compound I-61] | – | EC50 [1, 4]: < 0.01 µM; EC50 [2, 5]: < 0.01 µM
10 | CC(C)c1csc(C(=O)c2c[nH]c3cc(C(=O)O)ccc23)n1 [Compound I-59] | – | EC50 [1, 4]: 0.1 to 1 µM; EC50 [2, 5]: 0.1 to 1 µM
11 | Cc1sc(C(=O)c2c[nH]c3ccccc23)nc1C(=O)NCCOCC[N+](C)(C)C [Compound I-16] | 0.1 to 1 | –
12 | O=C(c1nc(C(=O)N2CCCCC2)cs1)c1c[nH]c2ccccc12 [Compound I-35, 1H-indol-3-yl-[4-(piperidine-1-carbonyl)thiazol-2-yl]methanone] | > 1 | –
13 | CN(CCO)CCOC(=O)c1csc(C(=O)c2c[nH]c3ccccc23)n1 [Compound I-21] | > 1 | –
14 | Cc1sc(C(=O)c2c[nH]c3ccccc23)nc1C(=O)OCCOCC[N+](C)(C)C [Compound I-1] | < 0.01 | –
15 | CC(C)c1csc(C(=O)c2c[nH]c3cc(C(=O)O)ccc23)n1 [Compound I-62] | – | EC50 [1, 4]: > 1 µM; EC50 [2, 5]: > 1 µM
16 | CC(C)c1csc(C(=O)c2c[nH]c3c(C(=O)O)cccc23)n1 [Compound I-89] | – | EC50 [1, 4]: > 1 µM; EC50 [2, 6]: > 1 µM
17 | CN(CCOCCO)C(=O)c1csc(C(=O)c2c[nH]c3ccccc23)n1 [Compound I-12] | 0.1 to 1 | –
18 | COC(=O)c1cn(C)c(C(=O)c2c[nH]c3ccccc23)n1 [Compound I-30] | > 1 | –
19 | N#Cc1nc(C(=O)c2c[nH]c3ccccc23)sc1Br [Compound I-97] | – | EC50 [1, 4]: 0.1 to 1 µM; EC50 [2, 6]: > 1 µM
20 | CC(C)c1csc(C(=O)c2c[nH]c3ccc(C(=O)O)cc23)n1 [Compound I-78, 3-(4-Isopropylthiazole-2-carbonyl)-1H-indole-5-carboxylic acid] | – | EC50 [1, 4]: 0.1 to 1 µM; EC50 [2, 6]: > 1 µM
21 | COC(=O)c1ccc2c(C(=O)c3nc(C(=O)OC)c(N)s3)c[nH]c2c1 [Compound I-96] | – | EC50 [1, 4]: < 0.01 µM; EC50 [2, 5]: < 0.01 µM
22 | COC(=O)c1nc(C(=O)c2c[nH]c3ccccc23)sc1C [Compound I-14] | 0.1 to 1 | –

Row | Compound | EC50 [1, 3] [µM] | also measured
23 | COC(=O)c1csc(C(=O)c2c[nH]c3cccc(N)c23)n1 [Compound I-93] | – | EC50 [1, 4]: 0.1 to 1 µM; EC50 [2, 5]: 0.01 to 0.1 µM
24 | COC(=O)c1cnc(C(=O)c2c[nH]c3ccccc23)n1C [Compound I-33] | > 1 | –
25 | NCCOCCNC(=O)c1csc(C(=O)c2c[nH]c3ccccc23)n1 [Compound I-42] | > 1 | –
26 | COC(=O)c1nc(C(=O)c2c[nH]c3ccccc23)sc1C(C)C [Compound I-31] | > 1 | –
27 | CN(C)CCOCCNC(=O)c1csc(C(=O)c2c[nH]c3ccccc23)n1 [Compound I-34, N-[2-[2-(Dimethylamino)ethoxy]ethyl]-2-(1H-indole-3-carbonyl)thiazole-4-carboxamide] | > 1 | –
28 | Cc1sc(C(=O)c2c[nH]c3ccccc23)nc1C(=O)NCCOCCN(C)C [Compound I-17] | 0.1 to 1 | –
29 | COC(=O)c1c[nH]c(C(=O)c2c[nH]c3ccccc23)n1 [Compound I-36] | > 1 | –
30 | C[N+]1(C)CCN(C(=O)c2csc(C(=O)c3c[nH]c4ccccc34)n2)CC1 [Compound I-28] | > 1 | –
31 | O=C(O)c1coc(C(=O)c2c[nH]c3ccccc23)n1 [Compound I-38] | > 1 | –
32 | C[N+](C)(C)CCOCCNC(=O)c1csc(C(=O)c2c[nH]c3ccccc23)n1 [Compound I-22] | > 1 | –
33 | C[N+](C)(C)CCOCCOC(=O)c1csc(C(=O)c2c[nH]c3ccccc23)n1 [Compound I-24] | > 1 | –
34 | CC(C)c1sc(C(=O)c2c[nH]c3ccccc23)nc1C(=O)O [Compound I-32] | > 1 | –
35 | Cn1cc(C(=O)O)nc1C(=O)c1c[nH]c2ccccc12 [Compound I-43] | > 1 | –
36 | COC(=O)c1csc(C(=O)c2c[nH]c3ccc(O)cc23)n1 [Compound I-44] | > 1 | –
37 | O=C(O)CCOCCNC(=O)c1csc(C(=O)c2c[nH]c3ccccc23)n1 [Compound I-26] | > 1 | –
38 | O=C(NCCOCCO)c1csc(C(=O)c2c[nH]c3ccccc23)n1 [Compound I-13] | 0.1 to 1 | –
39 | Cn1c(C(=O)O)cnc1C(=O)c1c[nH]c2ccccc12 [Compound I-39] | > 1 | –
40 | CN1CCN(C(=O)c2csc(C(=O)c3c[nH]c4ccccc34)n2)CC1 [Compound I-25] | > 1 | –
41 | CC(C)(C)OC(=O)NCCOCCNC(=O)c1csc(C(=O)c2c[nH]c3ccccc23)n1 [Compound I-41, tert-Butyl N-[2-[2-[[2-(1H-indole-3-carbonyl)thiazole-4-carbonyl]amino]ethoxy]ethyl]carbamate] | > 1 | –
42 | COC(=O)c1csc(C(=O)c2c[nH]c3cc(O)ccc23)n1 [Compound I-45] | > 1 | –
43 | O=C(O)COCCNC(=O)c1csc(C(=O)c2c[nH]c3ccccc23)n1 [Compound I-37] | > 1 | –

Now from value to molecule, other results behind:

Row | EC50 [1, 3] [µM] | Compound | also measured
44 | 0.1 to 1 | COC(=O)c1csc(/C(=N/O)c2c[nH]c3ccccc23)n1 [Compound P-8] | –
45 | > 1 | COC(=O)c1csc(C(=O)c2n[nH]c3ccccc23)n1 [Compound P-17] | –
46 | 0.1 to 1 | O=C(OCCO)c1csc(C(=O)c2c[nH]c3ccccc23)n1 [Compound P-9] | –
47 | > 1 | COC(=O)c1csc([C@@H](O)c2c[nH]c3ccccc23)n1 [Compound P-15] | –
48 | < 0.01 | COC(=O)c1nc(C(=O)c2c[nH]c3ccccc23)sc1C [Compound P-1] | –
49 | 0.1 to 1 | COC(=O)c1csc(C(=O)c2c[nH]c3ccc(OC)cc23)n1 [Compound P-7] | –
50 | > 1 | COC(=O)c1coc(C(=O)c2c[nH]c3ccccc23)n1 [Compound P-19] | –
51 | 0.1 to 1 | CO/N=C(\c1nc(C(=O)OC)cs1)c1c[nH]c2ccccc12 [Compound P-10] | –
52 | 0.1 to 1 | O=C(OCCOCCO)c1csc(C(=O)c2c[nH]c3ccccc23)n1 [Compound P-6] | –
53 | > 1 | CO/N=C(/c1nc(C(=O)OC)cs1)c1c[nH]c2ccccc12 [Compound P-11] | –
54 | > 1 | COC(=O)c1csc(C(=O)c2cn(C)c3ccccc23)n1 [Compound P-16] | –
55 | > 1 | COC(=O)c1csc(/C(=N\O)c2c[nH]c3ccccc23)n1 [Compound P-13] | –
56 | 0.01 to 0.1 | NC(=O)c1csc(C(=O)c2c[nH]c3ccccc23)n1 [Compound P-5] | –
57 | > 1 | COC(=O)c1csc([C@H](O)c2c[nH]c3ccccc23)n1 [Compound P-14] | –
58 | > 1 | COC(=O)c1csc(C(=O)c2c[nH]c3cccnc23)n1 [Compound P-18] | –

Reference: patent US20210300912A1 (Ikena Oncology, Inc., priority 2019, published 2021)
